From US12486269B2 (Aconcagua Bio, Inc., priority 2024, dated 2025)

How the values were obtained:
[1] = molecular target: T1, COS-7/AMY3 (human calcitonin receptor (CTR) and RAMP3) (Homo sapiens, UniProt O60896+P30988); experiment: Amylin Receptor cAMP Assay II; type: cell-based; settings: values marked **: Amylin Receptor cAMP Assay II; COS-7/AMY3 cells, cAMP dynamic 2 kit, 30 min; read-out: Amylin Receptor cAMP Stimulation Activity: EC50
T1 construct: expressed in transfected cells; host or cells: COS-7
T1 sequence (O60896 24-148, one chain of several): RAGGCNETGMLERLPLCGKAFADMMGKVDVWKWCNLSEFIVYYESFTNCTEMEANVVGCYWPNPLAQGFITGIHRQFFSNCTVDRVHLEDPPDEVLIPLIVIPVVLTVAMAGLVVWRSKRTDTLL
Summary of the method: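 COS-7 cells stably co-expressing human CTR and RAMP3 (AMY3), 2000 cells/well in HBSS with 20 mM HEPES, 0.5 mM IBMX, 0.1% casein, stimulated with compound for 30 min at 37 °C. cAMP measured by HTRF (665/615 nm), activity normalized between vehicle and maximal control.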

[2] = molecular target: T2, human calcitonin receptor (CTR) (Homo sapiens, UniProt P30988); experiment: Calcitonin Receptor (CTR) cAMP Assay; type: cell-based; settings: COS7-human CTR Clone #2 stable cell line, cAMP dynamic 2 kit, 30 min; read-out: Calcitonin Receptor cAMP Stimulation Activity: EC50
T2 construct: expressed in transfected cells; host or cells: COS-7 (COS7-human CTR Clone #2)
T2 sequence (P30988 25-474): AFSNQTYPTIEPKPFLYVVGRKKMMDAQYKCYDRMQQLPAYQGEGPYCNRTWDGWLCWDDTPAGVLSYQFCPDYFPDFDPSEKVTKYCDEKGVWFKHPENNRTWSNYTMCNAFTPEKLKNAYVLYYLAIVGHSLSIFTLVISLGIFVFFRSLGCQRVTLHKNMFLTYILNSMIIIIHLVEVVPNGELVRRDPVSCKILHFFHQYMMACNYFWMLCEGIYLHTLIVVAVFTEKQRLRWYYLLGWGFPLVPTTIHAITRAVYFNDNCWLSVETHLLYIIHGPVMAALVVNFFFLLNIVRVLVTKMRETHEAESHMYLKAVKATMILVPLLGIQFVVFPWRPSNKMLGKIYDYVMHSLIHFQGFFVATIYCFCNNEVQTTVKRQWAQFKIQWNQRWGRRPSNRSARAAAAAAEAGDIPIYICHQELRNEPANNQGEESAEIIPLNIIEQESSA
Summary of the method: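 COS-7 cells stably expressing human CTR (2000 cells/well) were incubated 30 min at 37 °C with 4-fold serially diluted compound in HBSS/20 mM HEPES/0.5 mM IBMX/0.1% casein. cAMP was detected by HTRF (665/615 nm) after 1 h at RT. % activity was normalised to vehicle and positive controls.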

Row | SMILES | EC50 [1] [nM] | EC50 [2] [nM]
1 | COc1cccc2c1CC[C@H]2Nc1nccc2cc(-c3c4c(nc(CCc5ccc(F)cc5)c3-c3n[nH]c(=O)s3)[C@@H]3CCCN3C4=O)sc12 [Compound 225, 5-((S)-2-(4-fluorophenethyl)-4-(7-(((R)-4-methoxy-2,3-dihydro-1H-inden-1-yl)amino)thieno[2,3-c]pyridin-2-yl)-5-oxo-7,8,9,9a-tetrahydro-5H-pyrido[2,3-a]pyrrolizin-3-yl)-1,3,4-thiadiazol-2(3H)-one] | 14.6 | 0.836
2 | O=C1c2c(nc(CCc3ccc(F)cc3)c(-c3n[nH]c(=O)o3)c2-c2cc3ccnc(N[C@@H]4CCc5ccccc54)c3s2)[C@@H]2CCCN12 [Compound 226, 5-((S)-4-(7-(((R)-2,3-dihydro-1H-inden-1-yl)amino)thieno[2,3-c]pyridin-2-yl)-2-(4-fluorophenethyl)-5-oxo-7,8,9,9a-tetrahydro-5H-pyrido[2,3-a]pyrrolizin-3-yl)-1,3,4-oxadiazol-2(3H)-one] | 14.2 | 1.08
3 | C[C@@H](Nc1nccc2cc(-c3c4c(nc(CCc5ccc(F)cc5)c3-c3n[nH]c(=O)o3)[C@@H]3CCCN3C4=O)sc12)c1ccc(F)c(F)c1 [Compound 227, 5-((S)-4-(7-(((R)-1-(3,4-difluorophenyl)ethyl)amino)thieno[2,3-c]pyridin-2-yl)-2-(4-fluorophenethyl)-5-oxo-7,8,9,9a-tetrahydro-5H-pyrido[2,3-a]pyrrolizin-3-yl)-1,3,4-oxadiazol-2(3H)-one] | 33.3 | 1.67
4 | C[C@@H](Nc1nccc2cc(-c3c4c(nc(CCc5ccc(F)cc5)c3-c3n[nH]c(=O)o3)[C@@H]3CCCN3C4=O)sc12)c1ccc(F)cc1F [Compound 228, 5-((S)-4-(7-(((R)-1-(2,4-difluorophenyl)ethyl)amino)thieno[2,3-c]pyridin-2-yl)-2-(4-fluorophenethyl)-5-oxo-7,8,9,9a-tetrahydro-5H-pyrido[2,3-a]pyrrolizin-3-yl)-1,3,4-oxadiazol-2(3H)-one] | 3030 | 25.7
5 | COc1cccc2c1CC[C@H]2Nc1nccc2cc(-c3c4c(nc(CCc5ccc(F)cc5)c3-c3n[nH]c(=O)o3)[C@H]3CCCN3C4=O)sc12 [Compound 229, 5-((R)-2-(4-fluorophenethyl)-4-(7-(((R)-4-methoxy-2,3-dihydro-1H-inden-1-yl)amino)thieno[2,3-c]pyridin-2-yl)-5-oxo-7,8,9,9a-tetrahydro-5H-pyrido[2,3-a]pyrrolizin-3-yl)-1,3,4-oxadiazol-2(3H)-one] | 48.4 | 13.4
6 | COc1cccc2c1CC[C@H]2Nc1nccc2cc(-c3c4c(nc(CCc5ccc(F)cc5)c3-c3n[nH]c(=O)o3)[C@@H]3CCCN3C4=O)sc12 [Compound 230, 5-((S)-2-(4-fluorophenethyl)-4-(7-(((R)-4-methoxy-2,3-dihydro-1H-inden-1-yl)amino)thieno[2,3-c]pyridin-2-yl)-5-oxo-7,8,9,9a-tetrahydro-5H-pyrido[2,3-a]pyrrolizin-3-yl)-1,3,4-oxadiazol-2(3H)-one] | 17.4 | 0.51
7 | N#Cc1ccc(Cn2ccc3cc(-c4c5c(nc(CCC67CCC(CC6)OC7)c4-c4n[nH]c(=O)o4)[C@@H]4CCCN4C5=O)cnc32)c(F)c1 [Compound 231, (S)-4-((5-(2-(2-(2-oxabicyclo[2.2.2]octan-4-yl)ethyl)-5-oxo-3-(5-oxo-4,5-dihydro-1,3,4-oxadiazol-2-yl)-7,8,9,9a-tetrahydro-5H-pyrido[2,3-a]pyrrolizin-4-yl)-1H-pyrrolo[2,3-b]pyridin-1-yl)methyl)-3-fluorobenzonitrile] | 15300 | 171
8 | O=C1c2c(nc(CCC34CCC(CC3)OC4)c(-c3n[nH]c(=O)o3)c2-c2cnc3c(ccn3Cc3ccc(F)cn3)c2)[C@@H]2CCCN12 [Compound 232, (S)-5-(2-(2-(2-oxabicyclo[2.2.2]octan-4-yl)ethyl)-4-(1-((5-fluoropyridin-2-yl)methyl)-1H-pyrrolo[2,3-b]pyridin-5-yl)-5-oxo-7,8,9,9a-tetrahydro-5H-pyrido[2,3-a]pyrrolizin-3-yl)-1,3,4-oxadiazol-2(3H)-one] | 12000 | 412
9 | O=C1c2c(nc(CCC34CCC(CC3)OC4)c(-c3n[nH]c(=O)o3)c2-c2cnc3c(ccn3Cc3ncc(Cl)cc3F)c2)[C@@H]2CCCN12 [Compound 233, (S)-5-(2-(2-(2-oxabicyclo[2.2.2]octan-4-yl)ethyl)-4-(1-((5-chloro-3-fluoropyridin-2-yl)methyl)-1H-pyrrolo[2,3-b]pyridin-5-yl)-5-oxo-7,8,9,9a-tetrahydro-5H-pyrido[2,3-a]pyrrolizin-3-yl)-1,3,4-oxadiazol-2(3H)-one] | 1820 | 36.3
10 | COc1cccc2c1CC[C@H]2Nc1nccc2cc(-c3c4c(nc(CCc5ccc(F)cc5)c3-c3n[nH]c(=O)o3)[C@H]3COCCN3C4=O)sc12 [Compound 234, (S)-2-(4-fluorophenethyl)-4-(7-(((R)-4-methoxy-2,3-dihydro-1H-inden-1-yl)amino)thieno[2,3-c]pyridin-2-yl)-3-(5-oxo-4,5-dihydro-1,3,4-oxadiazol-2-yl)-7,8,10,10a-tetrahydro-5H-pyrido[2′,3′:3,4]pyrrolo[2,1-c][1,4]oxazin-5-one] | 48.1 | 1.83
11 | COc1cccc2c1CC[C@H]2Nc1nccc2cc(-c3c4c(nc(CCc5ccc(F)cc5)c3-c3n[nH]c(=O)o3)[C@@H]3COCCN3C4=O)sc12 [Compound 235, (R)-2-(4-fluorophenethyl)-4-(7-(((R)-4-methoxy-2,3-dihydro-1H-inden-1-yl)amino)thieno[2,3-c]pyridin-2-yl)-3-(5-oxo-4,5-dihydro-1,3,4-oxadiazol-2-yl)-7,8,10,10a-tetrahydro-5H-pyrido[2′,3′:3,4]pyrrolo[2,1-c][1,4]oxazin-5-one] | 18.1 | 0.236
12 | COc1cccc2c1CC[C@H]2Nc1nccc2cc(-c3c(-c4n[nH]c(=O)o4)c(CCc4ccc(F)cc4)nc4c3S(=O)(=O)C[C@@H]4C(C)C)sc12 [Compound 236, 5-((R)-5-(4-fluorophenethyl)-3-isopropyl-7-(7-(((R)-4-methoxy-2,3-dihydro-1H-inden-1-yl)amino)thieno[2,3-c]pyridin-2-yl)-1,1-dioxido-2,3-dihydrothieno[3,2-b]pyridin-6-yl)-1,3,4-oxadiazol-2(3H)-one] | 128 | 177
13 | COc1cccc2c1CC[C@H]2Nc1nccc2cc(-c3c(-c4n[nH]c(=O)o4)c(CCc4ccc(F)cc4)nc4c3S(=O)(=O)C[C@H]4C(C)C)sc12 [Compound 237, 5-((S)-5-(4-fluorophenethyl)-3-isopropyl-7-(7-(((R)-4-methoxy-2,3-dihydro-1H-inden-1-yl)amino)thieno[2,3-c]pyridin-2-yl)-1,1-dioxido-2,3-dihydrothieno[3,2-b]pyridin-6-yl)-1,3,4-oxadiazol-2(3H)-one] | 18.5 | 0.591
14 | N#Cc1ccc(Cn2c(=O)oc3cc(-c4c(-c5n[nH]c(=O)o5)c(CCc5ccc(F)cc5)nc5c4S(=O)(=O)CC54CC4)ccc32)nc1 [Compound 238, 6-((6-(5′-(4-fluorophenethyl)-1′,1′-dioxido-6′-(5-oxo-4,5-dihydro-1,3,4-oxadiazol-2-yl)-2′H-spiro[cyclopropane-1,3′-thieno[3,2-b]pyridin]-7′-yl)-2-oxobenzo[d]oxazol-3(2H)-yl)methyl)nicotinonitrile] | 75.7 | 5.12
15 | COc1cc(Cl)cc2c1CC[C@H]2Nc1nccc2cc(-c3c4c(nc(CCc5ccc(F)cc5)c3-c3n[nH]c(=O)o3)[C@@H]3CCCN3C4=O)sc12 [Compound 239, 5-((S)-4-(7-(((R)-6-chloro-4-methoxy-2,3-dihydro-1H-inden-1-yl)amino)thieno[2,3-c]pyridin-2-yl)-2-(4-fluorophenethyl)-5-oxo-7,8,9,9a-tetrahydro-5H-pyrido[2,3-a]pyrrolizin-3-yl)-1,3,4-oxadiazol-2(3H)-one] | 23.4 | 0.975
16 | COc1cccc2c1CC[C@H]2N1Cc2cc(-c3c4c(nc(CCc5ccc(F)cc5)c3-c3n[nH]c(=O)o3)C35CC(CN3C4=O)C5)ccc2C1=O [Compound 240, (R)-5-(2-(4-fluorophenethyl)-4-(2-(4-methoxy-2,3-dihydro-1H-inden-1-yl)-1-oxoisoindolin-5-yl)-5-oxo-8,9-dihydro-5H,7H-8,9a-methanopyrido[2,3-a]pyrrolizin-3-yl)-1,3,4-oxadiazol-2(3H)-one] | 182 | 8.9
